These results are taken from publication PMC8584989 (International Journal of Molecular Sciences, 2021).

The target of data set [1] is T1, CYP2D6 (Homo sapiens, UniProt P10635).
T1 construct: purchased Thermo Fisher Scientific
Description: Vivid CYP450 Screening Kit, recombinant CYP2D6. Format: in vitro ADME. As to the method: (§1) CYP inhibitory assay was performed using Vivid CYP450 screening kit as described previously. The kits consist of microsomal fraction containing human CYP isoforms, human CYP reductase and in several cases cytochrome b5. Experiments were performed following the manufacturer’s protocol on black 96-well plates using kinetic mode. […] Then, the master mix (CYP isoenzyme with an NADPH regeneration system in buffer) was added in each well and plate was pre-incubated for 10 min. The reaction was started with the mixture of NADP^+ and Vivid substrate and the fluorescence of samples was measured in 1 min interval for 60 min using an Infinite M200 Pro microplate reader (Tecan, Männedorf, Switzerland). Data from linear phase (15 min) were used for data evaluation.

The target in data set [2] is T2, ABCB1 (Homo sapiens, UniProt P08183). Description: Inhibitory accumulation assay in MDCKII-ABCB1 cells. Format: cell-based. Here is the method:
Accumulation assays were performed as described previously. […] The daunorubicin and mitoxantrone accumulation assays were performed in above mentioned cell lines and were also adopted to primary NSCLC cultures. […] Cells were incubated up to 70-80% confluence for approximately 24 h. […] The cells there trypsinized on ice, resuspended with 2% FBS in cold PBS solution and then fluorescence was detected using flow cytometer (BD FACSCanto II, Allschwil, Switzerland). […] For data presentation, the ratios of relative fluorescence units (RFUs) from treated samples to RFUs from vehicle-treated (control) cells were computed generating “relative substrate accumulation”.

Data set [3] addresses T3, ABCG2 (Homo sapiens, UniProt Q9UNQ0).
T3 sequence (Q9UNQ0 1-655): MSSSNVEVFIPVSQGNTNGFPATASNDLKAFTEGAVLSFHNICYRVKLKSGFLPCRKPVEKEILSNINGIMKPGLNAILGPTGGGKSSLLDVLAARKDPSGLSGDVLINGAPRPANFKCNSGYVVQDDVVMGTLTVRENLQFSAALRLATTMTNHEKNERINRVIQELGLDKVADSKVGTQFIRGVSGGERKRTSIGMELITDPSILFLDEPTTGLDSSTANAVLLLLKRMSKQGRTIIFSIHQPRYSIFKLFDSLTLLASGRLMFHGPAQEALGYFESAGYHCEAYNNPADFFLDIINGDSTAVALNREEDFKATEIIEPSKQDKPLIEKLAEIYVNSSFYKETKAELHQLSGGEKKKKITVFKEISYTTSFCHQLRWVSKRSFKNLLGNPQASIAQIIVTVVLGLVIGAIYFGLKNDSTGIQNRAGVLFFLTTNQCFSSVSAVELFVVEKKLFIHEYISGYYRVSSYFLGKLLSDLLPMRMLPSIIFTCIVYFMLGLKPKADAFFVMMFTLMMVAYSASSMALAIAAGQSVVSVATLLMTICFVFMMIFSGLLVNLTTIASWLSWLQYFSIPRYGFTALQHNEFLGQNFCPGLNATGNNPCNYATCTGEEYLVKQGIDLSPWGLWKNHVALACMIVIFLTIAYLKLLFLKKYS
As to the kind of experiment: MDCKII cellular monolayer transport assay. Format: in vitro ADME. To be noted: 1 µM tepotinib, 4 h. As to the method: This assay was performed as described previously. […] The Transwells were incubated until full confluence for 7 days with media replacement every 2 days. Prior addition of tested drugs, inserts were washed with 1 × PBS on both apical and basal sides. […] Samples were then collected from the acceptor chambers at 0.5, 1, 2 and 4 h intervals. Cellular monolayers’ integrity was verified using fluorescein isothiocyanate-labeled dextran (MW = 40 kDa) accepting leakage up to 5% per hour.

The nature of data set [4]: MTT proliferation / drug combination assay. To be noted: human.
A short description of data set [5]: XTT proliferation / drug combination assay. The conditions noted are these: human. In general terms: Formazan colour is commonly taken as a measure of viable cells.
The target of data set [6] is T4, CYP1A2 (Homo sapiens, UniProt P05177).
T4 construct: purchased Thermo Fisher Scientific
T4 sequence (P05177 2-516 limits assumed): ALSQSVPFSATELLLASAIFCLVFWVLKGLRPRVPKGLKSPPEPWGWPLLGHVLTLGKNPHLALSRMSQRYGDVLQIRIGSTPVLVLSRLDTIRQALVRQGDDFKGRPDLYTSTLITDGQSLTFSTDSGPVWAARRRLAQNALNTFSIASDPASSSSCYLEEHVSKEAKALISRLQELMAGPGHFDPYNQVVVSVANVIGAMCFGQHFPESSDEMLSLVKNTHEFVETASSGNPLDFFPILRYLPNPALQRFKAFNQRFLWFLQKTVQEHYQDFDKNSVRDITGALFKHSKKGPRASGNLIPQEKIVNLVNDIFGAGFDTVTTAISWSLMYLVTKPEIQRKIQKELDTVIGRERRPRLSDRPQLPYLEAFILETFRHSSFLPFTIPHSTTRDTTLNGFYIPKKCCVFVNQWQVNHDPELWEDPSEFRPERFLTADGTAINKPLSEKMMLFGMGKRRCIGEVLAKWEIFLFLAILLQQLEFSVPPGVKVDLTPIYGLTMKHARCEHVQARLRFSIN
Description: Vivid CYP450 Screening Kit, recombinant CYP1A2. Format: in vitro ADME. As to the method:
as §1

The target of data set [7] is T2, ABCB1. To be noted: DI study in healthy subjects; cited from earlier work.
Data set [8] addresses T5, CYP2C8 (Homo sapiens, UniProt P10632).
T5 construct: purchased Thermo Fisher Scientific
Description: Vivid CYP450 Screening Kit, recombinant CYP2C8. Type of data set: in vitro ADME. The conditions noted are these: recombinant enzyme; read-out: CYP2C8 inhibition IC50. Here is the method: as §1

The subject of data set [9] is ABC transporters and CYPs. Description: Gene expression (induction) studies by qRT-PCR. Format: cell-based, human. To be noted: 1.5 µM tepotinib; DI-related models, NSCLC cell lines and primary NSCLC cultures. Here is the method: Gene expression studies were performed employing quantitative real-time reverse transcription PCR (qRT-PCR) technique as described in our previous papers.
The Caco-2, LS174T, A549, NCI-H1299 cells or primary lung cancer cells were seeded on 12-well plates with the densities of 50 × 10^4, 100 × 10^4, 24 × 10^4, 18 × 10^4 or 15 × 10^4 cells/well, respectively, and incubated for 24 h. […] Samples were collected at 24 h and 48 h intervals after drug treatment using TRI Reagent and then, mRNA isolation was performed. Agarose gel electrophoresis was used for the control of RNA quality and integrity and the RNA yield was monitored via NanoDrop ND-1000 spectrophotometer (American Laboratory Trading, East Lyme, CT, USA). RNA (1000 ng) was transcribed to cDNA using gb Reverse Transcription Kit. ABCB1, ABCG2 and ABCC1 mRNA expressions were detected with Master Mix and TaqMan-based qRT-PCR systems using QuantStudio 6 (Life Technologies, Carlsbad, CA, USA). […]
In the case of the HepaFH3 hepatocytes, first, viability was analyzed with CellTiter-Glo 2.0 Viability Assay; the luminescence was measured using a microplate reader (FLUOstar Omega, BMG Labtech, Ortenberg, Germany). […] RNA integrity and quality was checked by agarose gel electrophoresis and the concentration assessed by NanoDrop. […]
For orientation: Quantitative PCR measures a nucleic acid by following its amplification.

Read-outs that look alike come from different tables or passages of the source.

T2 sequence (P08183 whole entry): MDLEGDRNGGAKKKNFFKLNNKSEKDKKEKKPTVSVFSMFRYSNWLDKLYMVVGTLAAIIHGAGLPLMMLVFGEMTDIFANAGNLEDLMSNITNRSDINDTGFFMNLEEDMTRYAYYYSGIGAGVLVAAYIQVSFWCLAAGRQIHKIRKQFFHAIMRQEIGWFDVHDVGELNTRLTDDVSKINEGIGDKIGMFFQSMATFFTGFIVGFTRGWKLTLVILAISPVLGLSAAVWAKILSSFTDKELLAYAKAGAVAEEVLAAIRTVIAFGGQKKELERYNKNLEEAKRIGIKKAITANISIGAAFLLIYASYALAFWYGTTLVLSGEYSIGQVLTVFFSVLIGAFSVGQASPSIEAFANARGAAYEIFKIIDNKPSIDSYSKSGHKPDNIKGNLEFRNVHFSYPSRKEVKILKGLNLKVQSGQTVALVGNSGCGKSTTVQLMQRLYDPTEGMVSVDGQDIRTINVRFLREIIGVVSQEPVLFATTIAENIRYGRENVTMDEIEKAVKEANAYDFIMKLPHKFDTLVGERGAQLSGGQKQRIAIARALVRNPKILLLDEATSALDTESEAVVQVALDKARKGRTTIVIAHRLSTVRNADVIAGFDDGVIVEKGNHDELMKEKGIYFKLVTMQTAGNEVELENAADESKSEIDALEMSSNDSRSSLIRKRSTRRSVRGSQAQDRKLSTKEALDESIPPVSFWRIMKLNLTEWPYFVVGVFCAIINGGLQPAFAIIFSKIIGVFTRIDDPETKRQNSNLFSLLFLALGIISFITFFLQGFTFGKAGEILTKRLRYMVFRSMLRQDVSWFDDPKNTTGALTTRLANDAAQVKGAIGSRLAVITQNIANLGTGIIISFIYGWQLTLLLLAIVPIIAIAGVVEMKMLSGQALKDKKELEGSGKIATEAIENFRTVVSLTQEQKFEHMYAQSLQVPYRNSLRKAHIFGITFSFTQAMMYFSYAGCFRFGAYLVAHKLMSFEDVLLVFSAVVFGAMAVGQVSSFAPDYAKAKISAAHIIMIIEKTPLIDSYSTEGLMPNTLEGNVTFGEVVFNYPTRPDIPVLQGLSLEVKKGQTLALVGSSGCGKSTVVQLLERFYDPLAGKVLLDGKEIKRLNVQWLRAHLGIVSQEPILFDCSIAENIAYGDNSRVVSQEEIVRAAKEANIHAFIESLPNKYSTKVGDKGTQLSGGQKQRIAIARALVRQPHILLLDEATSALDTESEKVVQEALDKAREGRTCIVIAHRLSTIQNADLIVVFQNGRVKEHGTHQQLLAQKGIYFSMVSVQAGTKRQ
T5 sequence (P10632 whole entry): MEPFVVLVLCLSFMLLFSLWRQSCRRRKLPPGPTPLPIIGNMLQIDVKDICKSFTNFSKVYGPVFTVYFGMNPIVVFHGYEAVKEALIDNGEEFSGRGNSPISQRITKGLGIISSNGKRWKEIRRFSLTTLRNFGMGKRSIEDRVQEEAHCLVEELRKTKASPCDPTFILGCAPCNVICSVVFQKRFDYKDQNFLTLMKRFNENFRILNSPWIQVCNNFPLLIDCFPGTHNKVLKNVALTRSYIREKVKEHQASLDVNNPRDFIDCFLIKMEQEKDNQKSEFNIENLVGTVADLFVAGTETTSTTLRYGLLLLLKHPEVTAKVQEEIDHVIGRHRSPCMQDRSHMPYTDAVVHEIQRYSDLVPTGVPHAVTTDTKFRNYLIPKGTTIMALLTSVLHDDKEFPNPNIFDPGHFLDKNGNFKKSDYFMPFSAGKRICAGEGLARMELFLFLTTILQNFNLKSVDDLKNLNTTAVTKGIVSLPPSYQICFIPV
T1 sequence (P10635 whole entry): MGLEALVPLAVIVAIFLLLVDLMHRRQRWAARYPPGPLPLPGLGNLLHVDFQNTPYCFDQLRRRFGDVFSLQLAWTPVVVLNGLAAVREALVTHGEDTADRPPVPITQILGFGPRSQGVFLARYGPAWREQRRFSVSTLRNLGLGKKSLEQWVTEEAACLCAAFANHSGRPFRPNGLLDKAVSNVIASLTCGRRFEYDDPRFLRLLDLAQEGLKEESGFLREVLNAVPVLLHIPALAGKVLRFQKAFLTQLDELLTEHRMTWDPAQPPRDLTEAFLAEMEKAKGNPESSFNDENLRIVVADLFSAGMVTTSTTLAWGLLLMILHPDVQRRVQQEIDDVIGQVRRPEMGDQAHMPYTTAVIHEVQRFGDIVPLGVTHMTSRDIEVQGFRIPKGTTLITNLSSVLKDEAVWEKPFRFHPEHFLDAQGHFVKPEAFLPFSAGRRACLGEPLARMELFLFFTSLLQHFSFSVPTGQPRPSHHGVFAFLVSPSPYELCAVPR

Turning to `CN1CCC(COc2cnc(-c3cccc(Cn4nc(-c5cccc(C#N)c5)ccc4=O)c3)nc2)CC1` [tepotinib, Tepotinib], the IC50 (in general, the concentration that gives 50% inhibition) in data set [1] is > 50 µM; in data set [2] (2 µM daunorubicin, 1 h, read-out: IC50, relative daunorubicin accumulation), 1280 nM; in data set [2] (8 µM hoechst 33342, read-out: IC50, relative Hoechst 33342 accumulation), 3150 nM; in data set [6] it was > 50 µM; in [8], 20.4 µM. Moreover, the “Substrate affinity for ABCG2” value in [3] is given as “No substrate affinities”. Moreover, the IC50 at 48 h worked out at 16.5 µM in data set [4] and 19.4 µM in data set [5]. In data set [7], the “Effect on AUC and Cmax of ABCB1 substrate dabigatran etexilate” value is “significantly increased AUC and Cmax”. The “Effect on expression of clinically relevant ABC transporters and CYPs” value in [9] is listed as “did not influence expression”.
